In article PMC7718874, “Coupling of H3K27me3 recognition with transcriptional repression through the BAH-PHD-CPL2 complex in Arabidopsis” (Nature Communications, 2020):

Tests used:
CDK kinases = details: cited from earlier work
[1] = test system: nascent RNA (Pol II transcription rate) of AGO5, SUC5 and downstream nontarget genes; test: Nuclear run-on assay with or without FLA (flavopiridol) treatment; parameters: species or system Arabidopsis; details: for NRO-qPCR, AT1G71900 / NRO-qPCR, AT2G27900 / NRO-qPCR, FT / NRO-qPCR, SUC5 / NRO-qPCR, AGO5: Figure 7c
Protocol: FLA treatment assay was performed as previous report. In brief, 2-week-old seedlings were collected and incubated with 200 μM FLA or mock solution (DMSO) overnight. The treated seedlings were subjected to total RNA extraction.
Nuclear run-on assay was performed as previous report with minor changes. In brief, after nuclei isolation with buffer (0.25 M sucrose, 15 mM PIPES pH 6.8, 5 mM MgCl2, 60 mM KCl, 15 mM NaCl, 1 mM CaCl2, 0.9% Triton X-100, and protease inhibitor cocktail), the nuclear pellet was resuspended with nuclei storage buffer (50 mM Tris-HCl pH 8, 0.1 mM EDTA, 5 mM MgCl2 and 40% glycerol) and mixed with transcription buffer (10 mM Tris-HCl, pH 8, 2.5 mM MgCl2, 150 mM KCl, 2 mM DTT, 80 units RNase inhibitor, 0.5 mM BrUTP, 1 mM ATP, 1 mM GTP, 1 mM CTP, 0.5 mM UTP, and 0.2% sarkosyl). After incubation at 30 °C for 15 min, the run-on reaction was stopped by adding Trizol reagent (Thermo). The nuclear RNAs were extracted and treated with DNase. The DNA-free RNAs were then inoculated with 2 μg anti-BrdU antibody (abcam) at room temperature for 30 min and precipitated by Dynabeads (Thermo). After two times washing, RNAs were extracted using Trizol reagent (Thermo). cDNAs were synthesized using SuperScript IV Reverse Transcriptase (Thermo) and subjected to qPCR analysis.

CN1CC[C@H](c2c(O)cc(O)c3c(=O)cc(-c4ccccc4Cl)oc23)[C@H](O)C1 [FLA, flavopiridol]
reduction of Pol II CTD phosphorylation (in words) (CDK kinases): reduce the phosphorylation of Pol II CTD by inhibiting the activity of CDK kinases | nascent RNA levels upon FLA treatment (in words) ([1]; 200 μM FLA overnight, 2-week-old seedlings, AGO5, SUC5 and downstream nontarget genes, BrUTP run-on, qPCR, normalized to 18 S rRNA, three biological repeats): greatly reduced | difference of nascent RNA levels between genotypes upon FLA treatment (in words) ([1]; 200 μM FLA overnight, Fig. 7c, three biological repeats): no obvious changes were observed between different genotypes | NRO-qPCR, AT1G71900 ([1]; Col-0 FLA, Repeat 1): 2e-5 | NRO-qPCR, AT2G27900 ([1]; Col-0 FLA, Repeat 1): 4.5e-5 | NRO-qPCR, FT ([1]; Col-0 FLA, Repeat 1): 2e-6 | NRO-qPCR, SUC5 ([1]; Col-0 FLA, Repeat 1): 2e-6 | NRO-qPCR, AT1G71900 ([1]; Col-0 FLA, Repeat 2): 1.6e-5 | NRO-qPCR, AT2G27900 ([1]; Col-0 FLA, Repeat 2): 1.8e-5 | NRO-qPCR, FT ([1]; Col-0 FLA, Repeat 2): 2e-6 | NRO-qPCR, SUC5 ([1]; Col-0 FLA, Repeat 2): 1.2e-5 | NRO-qPCR, AT1G71900 ([1]; Col-0 FLA, Repeat 3): 2e-6 | NRO-qPCR, AT2G27900 ([1]; Col-0 FLA, Repeat 3): 4.7e-5 | NRO-qPCR, SUC5 ([1]; Col-0 FLA, Repeat 3): 5e-6 | NRO-qPCR, AGO5 ([1]; aipp2/paipp2 FLA, Repeat 1): 1.35e-7 | NRO-qPCR, AT1G71900 ([1]; aipp2/paipp2 FLA, Repeat 1): 1e-5 | NRO-qPCR, AT2G27900 ([1]; aipp2/paipp2 FLA, Repeat 1): 3.1e-5 | NRO-qPCR, FT ([1]; aipp2/paipp2 FLA, Repeat 1): 5e-6 | NRO-qPCR, SUC5 ([1]; aipp2/paipp2 FLA, Repeat 1): 1.1e-5 | NRO-qPCR, AT1G71900 ([1]; aipp2/paipp2 FLA, Repeat 2): 1.3e-5 | NRO-qPCR, AT2G27900 ([1]; aipp2/paipp2 FLA, Repeat 2): 2.6e-5 | NRO-qPCR, FT ([1]; aipp2/paipp2 FLA, Repeat 2): 4e-6 | NRO-qPCR, SUC5 ([1]; aipp2/paipp2 FLA, Repeat 2): 1.2e-5 | NRO-qPCR, AGO5 ([1]; aipp2/paipp2 FLA, Repeat 3): 2.05e-6 | NRO-qPCR, AT2G27900 ([1]; aipp2/paipp2 FLA, Repeat 3): 2.3e-5 | NRO-qPCR, AT1G71900 ([1]; aipp3 FLA, Repeat 1): 1.1e-5 | NRO-qPCR, AT2G27900 ([1]; aipp3 FLA, Repeat 1): 1.5e-5 | NRO-qPCR, FT ([1]; aipp3 FLA, Repeat 1): 3e-6 | NRO-qPCR, SUC5 ([1]; aipp3 FLA, Repeat 1): 2e-6 | NRO-qPCR, AT1G71900 ([1]; aipp3 FLA, Repeat 2): 1e-5 | NRO-qPCR, AT2G27900 ([1]; aipp3 FLA, Repeat 2): 5e-5 | NRO-qPCR, FT ([1]; aipp3 FLA, Repeat 2): 1e-6 | NRO-qPCR, SUC5 ([1]; aipp3 FLA, Repeat 2): 2e-6 | NRO-qPCR, AT1G71900 ([1]; aipp3 FLA, Repeat 3): 1e-5 | NRO-qPCR, AT2G27900 ([1]; aipp3 FLA, Repeat 3): 7.2e-5 | NRO-qPCR, SUC5 ([1]; aipp3 FLA, Repeat 3): 1e-6 | NRO-qPCR, AGO5 ([1]; cpl2 FLA, Repeat 1): 1.31e-6 | NRO-qPCR, AT1G71900 ([1]; cpl2 FLA, Repeat 1): 2e-6 | NRO-qPCR, AT2G27900 ([1]; cpl2 FLA, Repeat 1): 1.6e-5 | NRO-qPCR, FT ([1]; cpl2 FLA, Repeat 1): 1e-6 | NRO-qPCR, SUC5 ([1]; cpl2 FLA, Repeat 1): 1e-5 | NRO-qPCR, AGO5 ([1]; cpl2 FLA, Repeat 2): 5.33e-7 | NRO-qPCR, AT1G71900 ([1]; cpl2 FLA, Repeat 2): 2e-6 | NRO-qPCR, AT2G27900 ([1]; cpl2 FLA, Repeat 2): 2.7e-5 | NRO-qPCR, FT ([1]; cpl2 FLA, Repeat 2): 2e-6 | NRO-qPCR, SUC5 ([1]; cpl2 FLA, Repeat 2): 7e-6 | NRO-qPCR, AT2G27900 ([1]; cpl2 FLA, Repeat 3): 1.1e-5 | NRO-qPCR, FT ([1]; cpl2 FLA, Repeat 3): 1e-6 | NRO-qPCR, SUC5 ([1]; cpl2 FLA, Repeat 3): 8e-6
